In PubChem BioAssay AID330 (DTP/NCI, 2004) one finds T/C data, which are given here for 23 compounds.

This assay has as its system P388 leukemia ip, CD2F1 mice, survival T/C. In words: NCI In Vivo Anticancer Drug Screen. Data for tumor model P388 Leukemia (intraperitoneal) in CD2F1 (CDF1) mice. Conditions: endpoint: median survival time, higher = longer survival. The gist of the method:
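Mice carrying the transplanted tumor received test compound or vehicle. Survival was recorded in each group, and the value is the treated-group measurement divided by that of the vehicle-treated control group.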

Where [1] appears, read: dose: 60.0 mg/kg/injection, schedule: Q01DX005 (ip), vehicle: saline with Tween-80.
[2] abbreviates: dose: 120.0 mg/kg/injection, schedule: Q01DX005 (ip), vehicle: saline with Tween-80.
[3] abbreviates: dose: 240.0 mg/kg/injection, schedule: Q01DX005 (ip), vehicle: saline with Tween-80.
[4] abbreviates: dose: 200.0 mg/kg/injection, schedule: Q01DX005 (ip), vehicle: saline with Tween-80.
The mark [5] stands for this setting: dose: 100.0 mg/kg/injection, schedule: Q01DX009 (ip), vehicle: saline with Tween-80.
The mark [6] stands for this setting: dose: 200.0 mg/kg/injection, schedule: Q01DX009 (ip), vehicle: saline with Tween-80.
Setting [7] is: dose: 400.0 mg/kg/injection, schedule: Q01DX009 (ip), vehicle: saline with Tween-80.
Where [8] appears, read: dose: 600.0 mg/kg/injection, schedule: Q01DX009 (ip), vehicle: saline with Tween-80.
The mark [9] stands for this setting: dose: 50.0 mg/kg/injection, schedule: Q01DX009 (ip), vehicle: Klucel (hydroxypropylcellulose) (HPC).
The mark [10] stands for this setting: dose: 100.0 mg/kg/injection, schedule: Q01DX009 (ip), vehicle: Klucel (hydroxypropylcellulose) (HPC).
Setting [11] is: dose: 200.0 mg/kg/injection, schedule: Q01DX009 (ip), vehicle: Klucel (hydroxypropylcellulose) (HPC).
[12] abbreviates: dose: 25.0 mg/kg/injection, schedule: Q01DX009 (ip), vehicle: saline with Tween-80.
Where [13] appears, read: dose: 50.0 mg/kg/injection, schedule: Q01DX009 (ip), vehicle: saline with Tween-80.
The mark [14] stands for this setting: dose: 50.0 mg/kg/injection, schedule: Q01DX005 (ip), vehicle: saline with Tween-80.

Values joined by “and” are separate entries in the source; they are usually repeats but may differ in a detail not shown here. Equal entries are not always repeated. Inconclusive results and toxic doses are left out.

For `O=S(O)Cc1ccccc1CSSSCc1ccccc1CS(=O)O`, the T/C is 114 % of control (dose: 25.0 mg/kg/injection, schedule: Q01DX005 (ip), vehicle: saline); 114 % of control (dose: 50.0 mg/kg/injection, schedule: Q01DX005 (ip), vehicle: saline); 114 % of control (dose: 100.0 mg/kg/injection, schedule: Q01DX005 (ip), vehicle: saline); 112 % of control (dose: 200.0 mg/kg/injection, schedule: Q01DX005 (ip), vehicle: saline).
Turning to `COc1ccc(C(=O)Cc2nc3nnc(NC(=O)Nc4ccc(Cl)cc4)n3nc2CC(=O)c2ccc(OC)cc2)cc1`, the T/C reads like this: (dose: 60.0 mg/kg/injection, schedule: Q01DX005 (ip), vehicle: saline) 97 % of control; (dose: 120.0 mg/kg/injection, schedule: Q01DX005 (ip), vehicle: saline) 94 % of control; (dose: 240.0 mg/kg/injection, schedule: Q01DX005 (ip), vehicle: saline) 95 % of control.
For the compound `COc1ccc2c(c1O)-c1cc(O)cc3c1C(C2)N(C(=O)CN(CCCl)CCCl)CC3` (configuration not stated), the T/C was 158 % of control (dose: 12.5 mg/kg/injection, schedule: Q04DX003 (ip), vehicle: distilled water + Tween-80); 158 % of control (dose: 12.5 mg/kg/injection, schedule: Q04DX003 (ip), vehicle: water); 114 % of control (dose: 25.0 mg/kg/injection, schedule: Q04DX003 (ip), vehicle: distilled water + Tween-80); 116 % of control (dose: 25.0 mg/kg/injection, schedule: Q04DX003 (ip), vehicle: water); 96 % of control (dose: 50.0 mg/kg/injection, schedule: Q04DX003 (ip), vehicle: water).
Take `CSc1nc(NC2OC(COC(C)=O)C(OC(C)=O)C(OC(C)=O)C2OC(C)=O)c(N=CC=Nc2c(NC3OC(COC(C)=O)C(OC(C)=O)C(OC(C)=O)C3OC(C)=O)nc(SC)[nH]c2=O)c(=O)[nH]1` (configuration not stated): the T/C is, setting by setting: under setting [1], 89 % of control; under setting [2], 99 % of control; under setting [3], 111 % of control.
With `CSC(=S)n1nc(C)c(N=Nc2cc(Cl)ccc2Cl)c1C`, the T/C was 93 % of control (dose: 6.25 mg/kg/injection, schedule: Q01DX005 (ip), vehicle: saline with Tween-80); 99 % of control (dose: 12.5 mg/kg/injection, schedule: Q01DX005 (ip), vehicle: saline with Tween-80); 95 % of control (dose: 25.0 mg/kg/injection, schedule: Q01DX005 (ip), vehicle: saline with Tween-80); 98 % of control under setting [4].
As for `CC(=O)OCC(OC(C)=O)C(OC(C)=O)C(OC(C)=O)C(C#N)OC(C)=O` (configuration not stated), the T/C is 91 % of control under setting [5], 87 % of control under setting [6], 91 % of control under setting [7] and 87 % of control under setting [8].
For `c1cnc2c(NC3CCCCC3)ncnc2n1`, the T/C is 100 % of control under setting [9], 98 % of control under setting [10] and 97 % of control under setting [11].
Take `Nc1cc2c(c[n+](CCCCCCCCCBr)c3ccccc23)c2ccccc12`: the T/C was 155 % of control (dose: 1.56 mg/kg/injection, schedule: Q04DX003 (ip), vehicle: other); 155 % of control (dose: 3.13 mg/kg/injection, schedule: Q04DX003 (ip), vehicle: other); 150 % of control (dose: 6.25 mg/kg/injection, schedule: Q04DX003 (ip), vehicle: other).
With `CC(C)C1(c2ccsc2)NC(=O)NC1=O` (configuration not stated), the T/C by setting is: under setting [9], 107 % of control; under setting [10], 99 % of control; under setting [11], 96 % of control.
Turning to `CC(=O)O[C@H]1CC[C@H]2[C@@H]3CCC4=CC(=O)CC[C@]4(C)[C@H]3[C@H](OC(C)=O)C[C@]12C`, the T/C was 95 % of control under setting [5], 100 % of control under setting [6] and 90 % of control under setting [7].
On to `Cc1cc2nc(NN=O)sc2cc1C`, for which the T/C was 109 % of control (dose: 3.12 mg/kg/injection, schedule: Q01DX009 (ip), vehicle: water); 97 % of control (dose: 6.25 mg/kg/injection, schedule: Q01DX009 (ip), vehicle: water); 106 % of control (dose: 12.5 mg/kg/injection, schedule: Q01DX009 (ip), vehicle: water); 104 % of control (2×) and 97 % of control (dose: 25.0 mg/kg/injection, schedule: Q01DX009 (ip), vehicle: water); 102 % of control and 103 % of control and 108 % of control (dose: 50.0 mg/kg/injection, schedule: Q01DX009 (ip), vehicle: water); 123 % of control (dose: 100.0 mg/kg/injection, schedule: Q01DX009 (ip), vehicle: water).
Take `O=C(CCCCl)CC(O)(C(F)(F)F)C(F)(F)F`: the T/C reads like this: (dose: 100.0 mg/kg/injection, schedule: Q04DX003 (ip), vehicle: saline with Tween-80) 110 % of control; (dose: 200.0 mg/kg/injection, schedule: Q04DX003 (ip), vehicle: saline with Tween-80) 90 % of control.
As for `CC1CP(c2ccccc2)(c2ccccc2)(c2ccccc2)OC1(C(=O)c1ccccc1)c1ccccc1` (configuration not stated), the T/C reads like this: (dose: 6.25 mg/kg/injection, schedule: Q01DX009 (ip), vehicle: saline with Tween-80) 100 % of control; under setting [12], 88 % of control.
For the compound `C/C(=N\NC(N)=S)c1ccccc1O`, the T/C by setting is: under setting [9], 99 % of control; under setting [10], 111 % of control; under setting [11], 102 % of control.
Regarding `[CH3][Sn]([CH3])([n]1cnc(N)nc1=O)[n]1cnc(N)nc1=O`, the T/C (dose: 6.25 mg/kg/injection, schedule: Q01DX005 (ip), vehicle: Klucel (hydroxypropylcellulose) (HPC)) is 108 % of control; the T/C (dose: 12.5 mg/kg/injection, schedule: Q01DX005 (ip), vehicle: Klucel (hydroxypropylcellulose) (HPC)) was 120 % of control and 90 % of control; the T/C (dose: 25.0 mg/kg/injection, schedule: Q01DX005 (ip), vehicle: Klucel (hydroxypropylcellulose) (HPC)) was 112 % of control and 113 % of control; the T/C (dose: 50.0 mg/kg/injection, schedule: Q01DX005 (ip), vehicle: Klucel (hydroxypropylcellulose) (HPC)) was 105 % of control and 118 % of control.
For `N#Cc1ccc(OC(=O)Nc2cc(Cl)cc(Cl)c2)cc1`, the T/C under setting [1] was 89 % of control, the T/C under setting [2] was 106 % of control and the T/C under setting [3] was 101 % of control.
`C1CCC2(CC1)CSC2.[Br][Hg][Br]`: the T/C is 89 % of control (dose: 6.25 mg/kg/injection, schedule: Q01DX001 (ip), vehicle: saline with Tween-80) and 87 % of control (dose: 12.5 mg/kg/injection, schedule: Q01DX001 (ip), vehicle: saline with Tween-80).
For the compound `Nc1nc(N)c2cc(Sc3ccc4ccccc4c3)ccc2n1`, the T/C was 119 % of control under setting [13] and 119 % of control under setting [6].
On to `O=C(COc1ccc(Cl)cc1Cl)Nc1ccc(I)cc1C(=O)O`, for which the T/C under setting [9] is 94 % of control, the T/C under setting [10] was 92 % of control and the T/C under setting [11] is 91 % of control.
`CCC(=O)Oc1ccc[nH]c1=O`: the T/C is 101 % of control under setting [12]; 105 % of control and 92 % of control (dose: 25.0 mg/kg/injection, schedule: Q01DX009 (ip), vehicle: saline); 100 % of control under setting [13]; 100 % of control and 110 % of control (dose: 50.0 mg/kg/injection, schedule: Q01DX009 (ip), vehicle: saline); 100 % of control under setting [5]; 103 % of control and 94 % of control (dose: 100.0 mg/kg/injection, schedule: Q01DX009 (ip), vehicle: saline). Besides, the T/C under setting [6] was 112 % of control and 121 % of control; the T/C (dose: 300.0 mg/kg/injection, schedule: Q01DX009 (ip), vehicle: saline) was 115 % of control and 116 % of control; the T/C (dose: 400.0 mg/kg/injection, schedule: Q01DX009 (ip), vehicle: Klucel (hydroxypropylcellulose) (HPC)) was 123 % of control; the T/C under setting [7] is 122 % of control; the T/C (dose: 500.0 mg/kg/injection, schedule: Q01DX009 (ip), vehicle: Klucel (hydroxypropylcellulose) (HPC)) is 154 % of control; the T/C under setting [8] is 122 % of control. The T/C (dose: 600.0 mg/kg/injection, schedule: Q01DX009 (ip), vehicle: saline) was 124 % of control.
On to `CC(=O)Nc1nc(C)c([N+](=O)[O-])s1`, for which the T/C runs as follows: under setting [13], 105 % of control; under setting [5], 93 % of control; under setting [6], 100 % of control.
Take `O=C(CCCCCCC(=O)ON1C(=O)CCC1=O)ON1C(=O)CCC1=O`: under setting [14], the T/C is 122 % of control.
Regarding `CC1CCCN2C(=O)CN(Cc3ccccc3)CC(=O)N12` (configuration not stated), the T/C under setting [14] is 100 % of control; the T/C (dose: 100.0 mg/kg/injection, schedule: Q01DX005 (ip), vehicle: saline with Tween-80) is 100 % of control; the T/C under setting [4] was 100 % of control.
